The results in this text go back to patent publication US8710043B2, “TRPM8 antagonists and their use in treatments” (Amgen Inc., priority 2011, dated 2014).

The target in this assay is T1, human TRPM8 (Homo sapiens, UniProt Q7Z2W7).
T1 construct: expressed in transfected cells; host or cells: Chinese hamster ovary (CHO) cells, T-REx tetracycline-inducible system, co-transfected with aequorin
In words: Luminescence readout assay for measuring intracellular calcium, icilin activation. The assay is classed as cell-based. To be noted: CHO cells expressing human TRPM8, aequorin luminescence, 1 μM icilin activation; read-out: hTRPM8 IC50. The method in brief:
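The read-out was luminescence reporting intracellular calcium, recorded by a CCD-based luminometer. Compounds were preincubated for 2.5 min before agonist challenge with 1 μM icilin. Human TRPM8 was expressed in a stable T-REx CHO line, induced with 0.5 μg/mL tetracycline the day before.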

T1 sequence (Q7Z2W7 whole entry): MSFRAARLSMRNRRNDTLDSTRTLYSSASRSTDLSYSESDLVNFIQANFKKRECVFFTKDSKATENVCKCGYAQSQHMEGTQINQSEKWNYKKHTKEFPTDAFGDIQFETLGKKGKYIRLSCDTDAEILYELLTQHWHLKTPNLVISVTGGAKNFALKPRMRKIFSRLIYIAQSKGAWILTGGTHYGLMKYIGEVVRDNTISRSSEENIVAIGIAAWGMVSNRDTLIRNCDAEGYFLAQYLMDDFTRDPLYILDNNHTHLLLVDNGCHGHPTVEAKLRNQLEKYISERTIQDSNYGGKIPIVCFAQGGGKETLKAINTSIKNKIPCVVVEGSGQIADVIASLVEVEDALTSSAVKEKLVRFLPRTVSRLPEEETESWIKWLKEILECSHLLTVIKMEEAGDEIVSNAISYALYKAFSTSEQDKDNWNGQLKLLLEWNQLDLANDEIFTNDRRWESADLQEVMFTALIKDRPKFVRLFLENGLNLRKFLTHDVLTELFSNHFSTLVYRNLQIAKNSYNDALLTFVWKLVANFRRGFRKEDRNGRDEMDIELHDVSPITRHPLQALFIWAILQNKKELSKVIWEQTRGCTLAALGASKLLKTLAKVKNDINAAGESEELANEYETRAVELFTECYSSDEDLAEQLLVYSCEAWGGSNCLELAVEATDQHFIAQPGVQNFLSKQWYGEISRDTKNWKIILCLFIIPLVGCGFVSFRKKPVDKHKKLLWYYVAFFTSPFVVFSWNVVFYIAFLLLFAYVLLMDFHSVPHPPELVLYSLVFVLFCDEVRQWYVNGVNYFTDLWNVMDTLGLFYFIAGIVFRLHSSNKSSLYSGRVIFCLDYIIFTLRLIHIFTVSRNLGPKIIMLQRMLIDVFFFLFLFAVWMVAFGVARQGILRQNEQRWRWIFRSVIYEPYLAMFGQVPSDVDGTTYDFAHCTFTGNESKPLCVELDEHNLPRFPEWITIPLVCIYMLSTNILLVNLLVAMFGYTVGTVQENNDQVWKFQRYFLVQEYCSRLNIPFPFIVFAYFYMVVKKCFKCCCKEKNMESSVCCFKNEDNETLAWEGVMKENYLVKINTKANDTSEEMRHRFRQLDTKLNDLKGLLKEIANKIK

As for `O=C(Cc1cccnc1)N[C@@H](c1ccc(C(F)(F)F)cc1)c1ncccc1C(F)(F)F` [Example 238, (S)-2-(pyridin-3-yl)-N-((4-(trifluoromethyl)phenyl)(3-(trifluoromethyl)pyridin-2-yl)methyl)acetamide], the IC50 was 0.547 µM.

As to `O=C(N[C@@H](c1ccc(C(F)(F)F)cc1)c1ncccc1F)c1ccccn1` [Example 194, (S)-N-((3-fluoropyridin-2-yl)(4-(trifluoromethyl)phenyl)methyl)picolinamide], the 50% inhibitory concentration (IC50) worked out at 0.0756 µM.

On to `O=C(N[C@@H](c1ccc(C(F)(F)F)cc1)c1ncccc1C(F)(F)F)c1cncnc1O` [Example 61, (S)-4-hydroxy-N-((4-(trifluoromethyl)phenyl)(3-(trifluoromethyl)pyridin-2-yl)methyl)pyrimidine-5-carboxamide], for which the IC50 amounted to 0.312 µM.

Regarding `Cc1cccnc1[C@@H](NC(=O)c1ccc2nccn2c1)c1ccc(C(F)(F)F)cc1` [Example 314, (S)-N-((3-methylpyridin-2-yl)(4-(trifluoromethyl)phenyl)methyl)imidazo[1,2-a]pyridine-6-carboxamide], the half-inhibitory concentration (IC50) is 0.0218 µM.

`COc1ccc(C(=O)N[C@@H](c2ccc(C(F)(F)F)cc2)c2ncccc2C(F)(F)F)nn1` [Example 37, (S)-6-methoxy-N-((4-(trifluoromethyl)phenyl)(3-(trifluoromethyl)pyridin-2-yl)methyl)pyridazine-3-carboxamide]: the IC50 is 0.146 µM.

With `O=C(N[C@@H](c1ccc(C(F)(F)F)cc1)c1c(F)cccc1F)c1ccc(=O)[nH]c1` [Example 258, (S)-N-((2,6-difluorophenyl)(4-(trifluoromethyl)phenyl)methyl)-6-oxo-1,6-dihydropyridine-3-carboxamide], the IC50 is 0.0407 µM.

Take `O=C(CCc1c[nH]cn1)N[C@@H](c1ccc(C(F)(F)F)cc1)c1ncccc1C(F)(F)F` [Example 155, (S)-3-(1H-imidazol-4-yl)-N-((4-(trifluoromethyl)phenyl)(3-(trifluoromethyl)pyridin-2-yl)methyl)propanamide 2,2,2-trifluoroacetate]: the half-inhibitory concentration (IC50) stood at 1.44 µM.

As for `O=C(O)c1cccc(C(=O)N[C@@H](c2ccc(C(F)(F)F)cc2)c2ncccc2F)c1` [Example 207, (S)-3-(((3-fluoropyridin-2-yl)(4-(trifluoromethyl)phenyl)methyl)carbamoyl)benzoic acid], the IC50 is 0.121 µM.

Take `Cn1cnc2ccc(C(=O)N[C@@H](c3ccc(C(F)(F)F)cc3)c3ncccc3F)cc21` [Example 395, (S)-N-((3-fluoropyridin-2-yl)(4-(trifluoromethyl)phenyl)methyl)-1-methyl-1H-benzo[d]imidazole-6-carboxamide]: the IC50 is 0.0066 µM.

Regarding `N#Cc1ccc(C(=O)N[C@@H](c2ccc(C(F)(F)F)cc2)c2ncccc2F)cc1` [Example 167, (S)-4-cyano-N-((3-fluoropyridin-2-yl)(4-(trifluoromethyl)phenyl)methyl)benzamide], the IC50 is 0.0215 µM.

Take `O=C(Cn1ccnc1)N[C@@H](c1ccc(C(F)(F)F)cc1)c1ncccc1C(F)(F)F` [Example 161, (S)-2-(1H-imidazol-1-yl)-N-((4-(trifluoromethyl)phenyl)(3-(trifluoromethyl)pyridin-2-yl)methyl)acetamide 2,2,2-trifluoroacetate]: the IC50 worked out at 3.37 µM.

As to `CC(C)Cc1cc(C(=O)N[C@@H](c2ccc(C(F)(F)F)c(F)c2)c2ncccc2C(F)(F)F)c2ccccc2n1` [Example 156, (S)-N-((3-fluoro-4-(trifluoromethyl)phenyl)(3-(trifluoromethyl)pyridin-2-yl)methyl)-2-isobutylquinoline-4-carboxamide bis (2,2,2-trifluoroacetate)], the IC50 is 0.301 µM.

For the compound `O=C(N[C@@H](c1ccc(C(F)(F)F)c(F)c1)c1ncccc1C(F)(F)F)c1ccc2cccnc2n1` [Example 129, (S)-N-((3-fluoro-4-(trifluoromethyl)phenyl)(3-(trifluoromethyl)pyridin-2-yl)methyl)-1,8-naphthyridine-2-carboxamide 2,2,2-trifluoroacetate], the IC50 was determined as 0.114 µM.
